Source: patent publication US10357537B2, “Cyclotides as immunosuppressive agents” (priority 2011, dated 2019)

Experiments:
[1] = test system: H. contortus nematodes; conditions: Huang et al., 2010; read-out: IC50 nematocidal activity; cited from earlier work
[2] = test system: experimental auto-immune encephalomyelitis in C57BL/6 mice; type: in vivo, mouse; conditions: 43 days
[3] = test system: activated human primary PBMC; experiment: Flow cytometric forward-side-scatter analysis of viability and proliferation; type: cell-based; conditions: data not shown
Description: After completion of the chemical analysis, different concentrations of the crude O. affinis cyclotide extract were tested for its anti-proliferative capacity on activated human primary PBMC (FIG. 2).

[4] = test system: T. colibriformus nematodes; conditions: Huang et al., 2010; read-out: IC50 nematocidal activity; cited from earlier work
[5] = test system: activated human primary PBMC; experiment: Anti-proliferative CFSE cell division assay on anti-CD3/CD28-activated PBMC; conditions: CFSE, flow cytometry; extract 50-100 μg/mL, cyclotides 1.8-14 μM, melittin 0.05-1.6 μM
Description: Human peripheral blood mononuclear cells (PBMC) were isolated from the blood of healthy adult donors obtained from the Blood Transfusion Centre (University Medical Center, Freiburg, Germany). Venous blood was centrifuged on a LymphoPrep™ gradient (density: 1.077 g/cm^3, 20 min, 500×g, 20° C.; Progen, Heidelberg, Germany). Afterwards cells were washed twice with medium and cell viability and concentration was determined using the trypan blue exclusion test. PBMC were cultured in RPMI 1640 medium supplemented with 10% heat-inactivated fetal calf serum (PAA, Coelbe, Germany), 2 mM L-glutamine, 100 U/mL penicillin and […] (all from Invitrogen, Karlsruhe, Germany). The cells were cultured at 37° C. in a humidified incubator with a 5% CO2/95% air atmosphere. All experiments conducted on human material were approved by the Ethics committee of the University of Freiburg.
(§1) After cultivation, the cells were assessed in bioassays as described in the text.
For cell proliferation and cell division tracking analysis PBMC were harvested and washed twice in cold PBS and resuspended in PBS at a concentration of 5×10^6 cells/mL. Cells were incubated for 10 min at 37° C. with carboxyfluorescein diacetate succinimidyl ester (CFSE; 5 μM: Sigma-Aldrich, Taufkirchen, Germany). The staining reaction was stopped by washing twice with complete medium. Afterwards, the cell division progress was analysed using flow cytometric analysis.
The anti-proliferative effect of cyclotide mutants/variants was tested according to Example 5. […] Afterwards the cell proliferation was assessed by analysing cell division using flow cytometric-based histogram analysis.

[6] = Relative insecticidal activity (other assays, Table 2); conditions: in vivo
[7] = test system: CNS inflammatory and demyelinating lesions; experiment: Histopathology of CNS in EAE mice; type: in vivo, mouse; conditions: haemotoxylin/eosin, Luxol fast blue, Bielshowsky silver staining
From the text: At the completion of the experiments, mice were anesthetized, their blood collected (for subsequent antibody determination) and brain and spinal cord carefully removed, prior to immersion in a 4% paraformaldehyde, 0.1 M phosphate buffer solution. Segments of brain, cerebellum and spinal cord were embedded in paraffin. Sections were stained with haemotoxylin-eosin, Luxol fast blue and Bielshowsky for evidence of inflammation, demyelination and axonal damage, respectively (McQualter 2001 J Exp Med. October 1; 194(7), 873-82). Semiquantitative histological evaluation for inflammation and demyelination was performed and scored in a blind fashion as follows: 0, no inflammation; 1, cellular infiltrate only in the perivascular areas and meninges; 2, mild cellular infiltrate in parenchyma; 3, moderate cellular infiltrate in parenchyma; and 4, severe cellular infiltrate in parenchyma (Bettadapura J Neurochem 70, 199, 1593-1599 8; Okuda J Neuroimmunol 131, 2002, 115-125).
The influence of kalata B1 vaccination on the formation of CNS inflammatory and demyelinating lesions was examined by histological studies of fixed tissue using haemotoxylin/eosin, Luxol fast blue (LFB) and Bielshowsky silver staining.

[8] = test system: nematodes; experiment: Relative nematocidal activity (other assays, Table 2); type: in vivo; conditions: some cells print two values separated by a slash
[9] = Barry 2003; Henriques 2011; cited from earlier work
[10] = test system: anti-MOG antibodies; experiment: MOG-specific antibody ELISA of sera; type: in vivo, mouse; conditions: Day 43, reactivity to MOG35-55
Description: Antibody activity to rMOG and MOG35-55 in mouse sera was measured by ELISA, as previously described Ichikawa Cell Immunol 191, 1999, 97-104). Briefly, serum was collected at the end of the experiments and tested by ELISA with rMOG and MOG35-55 peptide-coated plates (Maxisorp, Nunc).
Whether the suppression of EAE in mice vaccinated with kalata B1 was associated with a decrease in the production of specific antibodies to MOG was examined. Accordingly, sera from kalata B1 and PBS treated mice were collected at the completion of the experiment (Day 43) and tested for their reactivity to MOG35-55.

[11] = test system: activated human primary PBMC
Description: as §1
The levels of apoptosis were determined using the annexin V-FITC apoptosis detection kit (eBioscience, Frankfurt, Germany) according to the manufacturer's instructions. After annexin V staining, propidium iodide solution (PI; eBioscience) was added and the cells were incubated in the dark, followed by a flow cytometric analysis to determine the amount of apoptosis and necrosis. CPT (30 μg/mL) and Triton-X 100 (0.5%) was used as positive controls for apoptosis and necrosis, respectively.
Cellular apoptotic and necrotic hallmarks were measured by using inter-nucleosomal DNA fragmentation (subG1^+ cells) assay and phosphatidylserine surface analysis through a single and combinatory annexin V and propidium iodide staining. This double staining process allowed the discrimination between viable (annexin^−/PI^−), apoptotic (annexin^+/PI^− and annexin^+/PI^+) or necrotic (annexin^−/PI^+) cells.

[12] = test system: human T-lymphoblast cells; conditions: read-out: IC50 cytotoxicity; Daly et al., 2004; cited from earlier work
[13] = test system: spleen cell cultures of EAE mice; experiment: Cytokine bead array of spleen cell supernatants; type: cell-based, mouse
Description: For cytokine assays, 2 ml of cells (5×10^6 cells/ml) from spleens isolated 32-46 days after immunization were added to 24 well plates either alone or with MOG35-55 (10 μg/ml) or with anti-CD3ε and anti-CD 28 (20 μg/ml each). Supernatants were collected at 48 and 72 h. Quantitation of mouse cytokine content incorporating Th1, Th2 cytokines and chemokines (IFNγ, IL-2, IL-3, IL-4, IL-5, IL-6, IL-9, IL-10, IL-12p70, IL-13, GM-CSF, KC, MCP-1, MIG, and TNF) were simultaneously determined using a multiplexed bead assay (Cytometric Bead Array Flex sets [CBA]) according to the manufacturer's recommended protocol (Becton Dickinson). Acquisition of 4500 events was performed using a FACScanto II flow cytometer (Becton Dickinson, San Jose, USA) and Diva software and data analysed and fitted to a 4-parameter logistic equation using the FCAP array software (Soft Flow, Pécs, Hungary). Minimum detection levels of each cytokine were: IFNγ, 5.2 μg/ml; IL-2, 1.5 μg/ml; IL-3, 4.2 μg/ml; IL-4, 0.8 μg/ml; IL-5, 4.8 μg/ml; IL-6, 6.5 μg/ml; IL-9, 10.5 μg/ml; IL-10, 16.4 μg/ml; IL-12p70, 9.2 μg/ml; IL-13, 7.3 μg/ml; GM-CSF, 9.9 μg/ml; KC, 16.2 μg/ml; MCP-1, 29 μg/ml; MIG, 11.4 μg/ml and TNF, 17.1 μg/ml.
Accordingly, conditioned media generated from in vitro stimulated and non-stimulated spleen cell cultures were assessed in cytokine bead array assays. A total of 15 cytokines were analysed simultaneously, including, IL2, IL3, IL4, IL5, IL6, IL9, IL10, IL12p70, IL13, IFNγ, GM-CSF, KC, MCP1, MIG and TNFα.

[14] = Relative hemolytic activity (other assays, Table 2); type: cell-based; conditions: some values given for the Ala mutant
[15] = test system: splenocytes of vaccinated EAE mice; conditions: MOG35-55
Description: Spleens were taken from mice sacrificed 32-46 days after MOG35-55 immunization. Cells were gently dispersed through a 70 μm nylon mesh (BD) into a single cell suspension, washed and cultured at 2.5×10^6 cells/ml in complete RPMI (RPMI 1640 containing 10% heat-inactivated fetal calf serum (Sigma), 2 mM L-glutamine, 100 U/ml of penicillin, 100 μg/ml of streptomycin, 50 μm 2-mercaptoethanol and 1 mm sodium pyruvate. Two hundred microliters of cell suspensions were then added to 96 well microtitre plates either alone, with MOG35-55 (20 μg/ml) or anti-CD3ε and anti-CD 28 (20 μg/ml each) and incubated for 66 h at 37° C. with 5% CO2. Ten microliters of [^3H]thymidine (1 μCi/well; Amersham, Australia; diluted 1/10 in media) were added to each well for the last 18 h. Plates were harvested onto glass fibre filters and a drop of Microscint Scintillant (Perkin Elmer) was added to each well. Counts were read using a Top Count NXT Scintillation Counter (Perkin Elmer). Presented values are the mean of three wells.

[16] = non-stimulated spleen cell supernatants

Q: For CC(C)C[C@@H]1NC(=O)CNC(=O)[C@H](CC(N)=O)NC(=O)[C@H](CCCNC(=N)N)NC(=O)[C@H]([C@@H](C)O)NC(=O)[C@@H]2CSSC[C@@H]3NC(=O)[C@H]([C@@H](C)O)NC(=O)CNC(=O)CNC(=O)[C@H](C(C)C)NC(=O)[C@@H]4CSSC[C@H](NC(=O)[C@H]([C@@H](C)O)NC(=O)[C@H](CSSC[C@H](NC(=O)[C@H](C(C)C)NC(=O)[C@@H]5CCCN5C1=O)C(=O)NCC(=O)N[C@@H](CCC(=O)O)C(=O)N[C@@H]([C@@H](C)O)C(=O)N4)NC(=O)CNC(=O)[C@@H]1CCCN1C(=O)[C@H]([C@@H](C)O)NC(=O)[C@H](CC(N)=O)NC3=O)C(=O)N[C@@H](CO)C(=O)N[C@@H](Cc1c[nH]c3ccccc13)C(=O)N1CCC[C@H]1C(=O)N[C@@H](C(C)C)C(=O)N2 [Kalata B1], which IC50 [1] is on record?
A: 2.7 µM

Q: What about the mean cumulative score ([2]; p<0.01 vs PBS control group) of the same compound?
A: 42.2±13.0

Q: And the “incidence and severity of EAE” value ([2]; three sc injections in IFA at weekly intervals before EAE induction)?
A: reduction in the incidence and severity of EAE

Q: What about the “concentrations cytotoxic to the cells” value [3] of the same compound?
A: higher than 14 μM

Q: And the IC50 [4]?
A: 4.5 µM

Q: And the “cell division / proliferation of activated PBMC (in words)” value [5]?
A: dose-dependent decrease of the cell division capacity

Q: And the “Relative activity in other assays (fold difference to kB1): insecticidal” value [6]?
A: 1.0 fold difference to kB1

Q: And the “histological lesions of EAE” value [7]?
A: some improvement in disease severity as judged by decrease in histological lesions of EAE

Q: What about the “Relative activity in other assays (fold difference to kB1): nematocidal” value [8] of the same compound?
A: 1.0 fold difference to kB1

Q: And the “concentrations causing hemolysis and membrane disruption” value [9]?
A: > 50 µM

Q: What about the “anti-MOG antibodies in sera” value [10] of the same compound?
A: anti-MOG antibodies were detected in all sera regardless of the vaccination regimen

Q: And the induction of necrosis ([11]; kalata B1 14 μM vs untreated control, Triton-X 100, melittin high concentrations)?
A: slightly increased

Q: What about the induction of apoptosis ([11]; kalata B1 1.8-14 μM, CPT 30 μg/mL, melittin up to 1.6 μM) of the same compound?
A: no significant influence on the induction of apoptosis

Q: What about the IC50 [12] of the same compound?
A: 3.5 µM

Q: What about the “cytokine content in stimulated supernatants” value ([13]; MOG35-55 or CD3/38-stimulated, cyclotide vs control groups, data not shown) of the same compound?
A: no marked changes in cytokine content

Q: And the “level of TNFα” value [13, 16]?
A: significantly reduced levels

Q: And the “level of chemokine MIG” value [13, 16]?
A: significantly reduced levels

Q: What about the “Relative activity in other assays (fold difference to kB1): hemolytic” value [14] of the same compound?
A: 0.7 fold difference to kB1

Q: And the “stimulation indices (SI), splenocyte proliferation to MOG” value [15]?
A: 2.9±0.4
